Measured values reported in publication PMC12275099, “VX-445 (elexacaftor) inhibits chloride secretion across human bronchial epithelial cells by directly blocking KCa3.1 channels” (PNAS Nexus, 2025).
“And” between values parts separate entries of the source, which are not always exact repeats. Equal values may be shown once.

Tests used:
KCa3.1 = biological target: T1, KCa3.1 (Homo sapiens, UniProt O15554); assay: Excised inside-out patch-clamp on HEK-KCa3.1; type: biochemical
T1 construct: expressed in transfected cells
Experimental: Our Isc results are consistent with VX-445 inhibiting KCa3.1 in HBEs. To directly assess this possibility, we initially carried out whole-cell patch-clamp studies on undifferentiated HBEs. […] Upon application of 10 µM VX-445, a majority of this current was inhibited, averaging 87 ± 4% (n = 3, P < 0.005; Fig. 3B). A summary of the current–voltage (I–V) relationship—normalized to cell capacitance—is shown in Fig. 3C, which also includes the whole-cell I–V in the presence of Tram-34. […] To ensure isolation of KCa3.1 currents and to more fully characterize this VX-445-dependent inhibition of KCa3.1, we utilized HEK cells heterologously expressing KCa3.1 (HEK-KCa3.1). Initially, we confirmed our results from HBEs, using whole-cell recordings, as above. […] In seven experiments, this inhibition averaged 58 ± 7% (P < 0.005). […] It is well recognized that drugs are carried to their targets in the blood bound to albumin, which ranges from 3.4 to 5.4%. Thus, we determined whether VX-445 (10 µM) would inhibit KCa3.1 expressed in HEK cells in the presence of 3.4% albumin. In four experiments, VX-445 inhibited an average of 51 ± 17% of the whole-cell KCa3.1 current, which is not different from that observed in the absence of albumin. To confirm the direct effect of VX-445 on KCa3.1, we utilized the excised, inside-out patch-clamp technique. The patch was then exposed to DCEBIO (100 µM) to further activate the channels ([34–37])—analogous to our Isc studies in HBEs. […] In three experiments, VX-445 inhibited an average of 63 ± 6% of the KCa3.1 current. Based on these experiments, we determined the apparent inhibitory constant, Ki for VX-445. For these experiments, patches were excised into saturating Ca^2+ (3 µM) to ensure maximal KCa3.1 activation. These studies were carried out in the absence of DCEBIO to eliminate the possibility that the inhibition observed was due to competition for the DCEBIO-binding site.
(§1) HEK cells stably expressing KCa3.1 (IK1, SK4), KCa2.3 (SK3), and KCa2.2 (SK2) were generated and cultured as previously described by us ([37], [66–71]).
(§2) HEK cells expressing the channel of interest were plated onto poly-L-lysine-coated glass coverslips 1–2 days prior to patch-clamp analysis. Electrophysiological recordings in the excised, inside-out, and whole-cell patch-clamp configurations were performed as recently described ([14]). For excised patch-clamp recordings, the pipette solution contained (in mM): 140 K-gluconate, 5 KCl, 1 CaCl2, 1 MgCl2, and 10 HEPES. The pH was adjusted to 7.2 with KOH. The bath solution contained (in mM): 145 K-gluconate, 5 KCl, 1.3 MgCl2, 10 HEPES, and 1 EGTA. Sufficient CaCl2 was added to obtain the desired free Ca^2+ concentration at a pH of 7.2 (adjusted with KOH). When recording KCa3.1 channels, ATP (300 µM) was added to the bath to diminish channel rundown ([73]). All recordings were carried out at a voltage of −100 mV, referenced to the extracellular compartment, as is standard. The apparent Ki and Hill coefficient for each CFTR corrector on KCa3.1, KCa2.3, and KCa2.2 were determined during a continuous recording by step-wise addition of increasing concentrations of compound and fitting the resultant relative remaining current to a Hill equation (Prism v. 10.1.0). The zero current level was determined by the addition of a 0 Ca^2+ solution (zero-added Ca^2+ plus 1 mM EGTA) at the end of the experiment. In the case of KCa3.1, TRAM-34, a known inhibitor of KCa3.1 ([45]), was used to confirm expression of the channel. For whole-cell experiments, pipettes contained (in mM): 145 K-gluconate, 10 EGTA, 7.5 CaCl2, 2 MgCl2, 3 mM NaATP, and 10 HEPES. The bath solution contained (in mM): 140 K-gluconate, 5 KCl, 1.0 MgCl2, 10 HEPES, and 2 CaCl2. Current–voltage relationships were determined by stepping from a holding potential of −80 mV to +80 mV in 20 mV increments for 400 ms. […]

KCa2.3 = KCa2.3 (Homo sapiens, UniProt Q9UGI6); assay: Excised inside-out patch-clamp on HEK cells expressing KCa2.3; type: biochemical
KCa2.3, sequence (Q9UGI6 whole entry): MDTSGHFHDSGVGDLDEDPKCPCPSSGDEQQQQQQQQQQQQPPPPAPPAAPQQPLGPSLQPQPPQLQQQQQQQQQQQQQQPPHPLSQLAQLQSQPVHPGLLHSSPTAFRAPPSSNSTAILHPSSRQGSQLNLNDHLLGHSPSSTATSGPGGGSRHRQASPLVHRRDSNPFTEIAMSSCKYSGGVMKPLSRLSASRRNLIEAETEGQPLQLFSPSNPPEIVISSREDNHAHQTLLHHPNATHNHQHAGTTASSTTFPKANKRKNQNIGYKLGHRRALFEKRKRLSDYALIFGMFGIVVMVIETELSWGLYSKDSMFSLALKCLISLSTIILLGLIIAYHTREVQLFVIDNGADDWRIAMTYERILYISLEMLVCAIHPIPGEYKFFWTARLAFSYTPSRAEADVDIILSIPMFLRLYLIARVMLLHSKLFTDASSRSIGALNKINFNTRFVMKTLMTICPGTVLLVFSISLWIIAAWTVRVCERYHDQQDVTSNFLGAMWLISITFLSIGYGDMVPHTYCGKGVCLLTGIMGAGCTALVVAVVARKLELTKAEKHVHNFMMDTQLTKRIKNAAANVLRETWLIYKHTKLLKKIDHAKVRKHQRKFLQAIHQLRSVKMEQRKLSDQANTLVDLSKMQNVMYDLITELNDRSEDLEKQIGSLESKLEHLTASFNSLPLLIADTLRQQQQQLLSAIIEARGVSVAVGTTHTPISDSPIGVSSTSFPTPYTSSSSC
Experimental: (§3) As above, we performed excised patch-clamp recordings on HEK cells heterologously expressing KCa2.3 or KCa2.2, in order to assess the activity of C2 CFTR corrector compounds. […] In contrast, the subsequent addition of 10 µM VX-659 yielded an almost complete inhibition of KCa2.3 currents, averaging 91 ± 3% (n = 4).
as §1
as §2, with “In the case of KCa3.1, TRAM-34, a known inhibitor of KCa3.1 ([45]), was used to confirm expression of the channel. For whole-cell experiments, pipettes contained (in mM): 145 K-gluconate, 10 EGTA, 7.5 CaCl2, 2 MgCl2, 3 mM NaATP, and 10 HEPES. The bath solution contained (in mM): 140 K-gluconate, 5 KCl, 1.0 MgCl2, 10 HEPES, and 2 CaCl2.” left out, “ms. The middle 300 ms of each trace was selected to avoid any influence of capacitive transients, and average currents were calculated for each voltage via the I–V tool in Clampfit.” for “ms.”

[1] = system: BKCa (KCa1.1, KCNMA1) channels; parameters: method as in PMID 38954478; conditions: primary HBEs and HEK cells heterologously expressing the channel; cited from earlier work
KCa2.2 = KCa2.2 (Rattus norvegicus, UniProt P70604); assay: Excised inside-out patch-clamp on HEK cells expressing KCa2.2; type: biochemical; conditions: 1 µM free Ca2+
KCa2.2, sequence (P70604 whole entry): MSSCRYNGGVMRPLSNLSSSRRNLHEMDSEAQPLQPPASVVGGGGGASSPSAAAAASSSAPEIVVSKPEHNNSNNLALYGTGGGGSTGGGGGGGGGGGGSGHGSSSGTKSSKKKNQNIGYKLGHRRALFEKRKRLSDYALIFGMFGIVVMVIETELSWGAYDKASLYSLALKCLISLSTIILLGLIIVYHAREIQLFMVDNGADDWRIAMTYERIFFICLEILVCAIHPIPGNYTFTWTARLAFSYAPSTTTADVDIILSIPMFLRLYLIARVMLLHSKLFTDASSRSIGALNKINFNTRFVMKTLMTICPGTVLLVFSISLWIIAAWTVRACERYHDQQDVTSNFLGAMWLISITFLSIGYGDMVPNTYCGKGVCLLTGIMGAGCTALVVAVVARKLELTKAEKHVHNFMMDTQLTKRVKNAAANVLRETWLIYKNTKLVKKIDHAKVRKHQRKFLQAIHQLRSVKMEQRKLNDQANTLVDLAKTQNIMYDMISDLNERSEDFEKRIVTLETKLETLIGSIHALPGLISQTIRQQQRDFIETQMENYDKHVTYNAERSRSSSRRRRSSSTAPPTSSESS
Experimental: as §3, §1
HEK cells expressing the channel of interest were plated onto poly-L-lysine-coated glass coverslips 1–2 days prior to patch-clamp analysis. […] The apparent Ki and Hill coefficient for each CFTR corrector on KCa3.1, KCa2.3, and KCa2.2 were determined during a continuous recording by step-wise addition of increasing concentrations of compound and fitting the resultant relative remaining current to a Hill equation (Prism v. 10.1.0). The zero current level was determined by the addition of a 0 Ca^2+ solution (zero-added Ca^2+ plus 1 mM EGTA) at the end of the experiment. […] Current–voltage relationships were determined by stepping from a holding potential of −80 mV to +80 mV in 20 mV increments for 400 ms. The middle 300 ms of each trace was selected to avoid any influence of capacitive transients, and average currents were calculated for each voltage via the I–V tool in Clampfit. […]

**Q.** Which Hill coefficient (KCa3.1; 3 µM free Ca2+, absence of DCEBIO) does the source give for `C[C@@H]1CN(c2nc(-n3ccc(OCCC4(C(F)(F)F)CC4)n3)ccc2C(=O)NS(=O)(=O)c2ccccc2)C(C)(C)C1` [VX-659, bamocaftor] here?
**A.** Its Hill coefficient is 1.8.

**Q.** What about the Ki (KCa3.1; 3 µM free Ca2+, absence of DCEBIO, Hill fit, n = 4, read-out: apparent Ki) of the same molecule?
**A.** The Ki was 890 nM and 900 nM.

**Q.** What about the inhibition at 10 µM (KCa3.1; 10 µM compound after DCEBIO 100 µM, 1 µM free Ca2+, three experiments, read-out: inhibition of KCa3.1 current in excised patch) of the same molecule?
**A.** Its inhibition at 10 µM is 98 ± 1%.

**Q.** What about the “selectivity among KCNN gene family members” value (KCa3.1; KCa3.1 versus KCa2.2 and KCa2.3) of the same molecule?
**A.** The value was “inhibits all members of the KCNN gene family with a similar affinity”.

**Q.** What about the relative remaining current (KCa3.1; [VX-659] 0.3, Fig 4G single experiments) of the same molecule?
**A.** Its relative remaining current is 89 and 100 and 78 and 88.

**Q.** And the Hill coefficient (KCa2.3; 1 µM free Ca2+)?
**A.** The Hill coefficient was 1.9 and 1.3.

**Q.** And the inhibition at 10 µM (KCa2.3; read-out: inhibition of KCa2.3 currents)?
**A.** Its inhibition at 10 µM is 91 ± 3%.

**Q.** And the “effect on BKCa” value [1]?
**A.** The value was “weakly potentiates”.

**Q.** And the Hill coefficient (KCa2.2)?
**A.** The Hill coefficient was 1.6 and 2.1.
